# Assay results published in publication PMC6345779, “Hypoculoside, a sphingoid base-like compound from Acremonium disrupts the membrane integrity of yeast cells” (Scientific Reports, 2019).
# Legend:
# [1] = test system: Saccharomyces cerevisiae diploid wild-type strain (BY4743); experiment: Growth inhibition of wild type Saccharomyces cerevisiae in YPD medium (96-well, OD600); type: cell-based
# Description: (§1) Figure 5 Structure-activity studies of hypoculoside. (A) Wild type strain (BY4743), vps35Δ, pep8Δ, vps20Δ, vps27Δ and vps36Δ strains were grown in YPD medium in the presence of hypoculoside or hypoculine at the indicated concentrations. Normalized growth at the different concentrations of hypoculoside and hypoculine tested after 24 hours of incubation at 30 °C is plotted for each strain. (B) Wild type strain (BY4743), vps35Δ, pep8Δ, vps20Δ, vps27Δ and vps36Δ strains were grown in YPD medium in the presence of hypoculoside or phytosphingosine or dihydrosphingosine at the indicated concentrations. Normalized growth at the different concentrations of hypoculoside, phytosphingosine and dihydrosphingosine tested after 24 hours of incubation at 30 °C is plotted for each strain.
# Susceptibility of Candida albicans strain SC5314 to hypoculoside and amphotericin B was determined by a broth microdilution assay using Clinical Laboratory Standards Institute (CLSI) guidelines. Cells grown to exponential phase in YPD medium (1% Yeast extract, 2% Bacto peptone and 2% glucose) were harvested, washed and resuspended in RPMI 1640 medium at a density of 2×10^3 cells/mL. RPMI 1640 medium with L-glutamine without sodium bicarbonate (Sigma) was buffered with 0.165 M morpholinepropanesulfonic acid (MOPS) to a pH of 7.0. Two-fold dilutions of hypoculoside and amphotericin B were prepared such that final concentration of DMSO was 1% in all cultures. Cell suspension was distributed in microtiter plate (200 µL/well) and incubated at 35 °C with 220 rpm for 24 h. The Saccharomyces cerevisiae diploid wild-type strain (BY4743) was used for determining the Inhibitory Concentration (IC) of hypoculoside. Frozen yeast cells were allowed to recover on YPD agar plates and grown in YPD medium for nine generations (OD600 nm ≤ 2). Cells were diluted to OD600 nm of 0.0625 in YPD medium. 200 μL of the diluted yeast culture was transferred into the 96-well microtiter plate having 2-fold serially diluted concentrations of hypoculoside. Cells were incubated in a microplate reader for 16–24 hours at 30 °C with shaking. IC of hypoculoside was computed by comparing the growth of treated versus control cells.
# [2] = test system: vps35Δ, pep8Δ, vps20Δ, vps27Δ and vps36Δ strains; experiment: Single-mutant sensitivity growth assay of deletion strains in YPD medium; type: cell-based, Saccharomyces cerevisiae
# Description: Figure 3 Homozygous profiling of hypoculoside in Saccharomyces cerevisiae. (A) logFC (Fitness Coefficient) was plotted against P-value for the 3702 mutants that were analyzed by HOP. The more negative the logFC value of a mutant, more sensitive is the mutant to hypoculoside. Mutants that have logFC < −0.5 and P-value < 0.05 are indicated by red dots and the remaining strains are indicated as blue dots. For the sake of clarity, gene names of only a subset of the top hits are indicated in the plot. (B) Wild type strain BY4743 and 24 deletion strains that were sensitive to hypoculoside in the HOP assay, were grown in the YPD medium in the presence of either DMSO or hypoculoside at different concentrations (0, 0.6, 1.3, 2.7 and 5.5 µM). Normalized growth at the different concentrations of hypoculoside tested after 24 hours of incubation at 30 °C is plotted for each strain.
# To test the validity of our HOP data, we first identified 336 ‘hypoculoside-sensitive’ mutants (Supplementary Table S1) that had at least a 1.4-fold inhibitory effect on their growth rate (i.e. logFC ≤ −0.5) with a P-value ≤ 0.05. From the list of 336 mutants, we chose 24 mutants that represent different Gene Ontology categories (see below) and tested their sensitivity to hypoculoside. Eighteen of the total 24 mutants were sensitive to hypoculoside confirming the HOP data (Fig. 3B). We also tested mutants that were predicted to be resistant to hypoculoside (positive logFC ≥ 0.5 and P-value ≤ 0.05). But none of them were resistant to hypoculoside in comparison to wild type strain in the single-mutant sensitivity assays (data not shown).
# as §1
# [3] = Mammalian cell cytotoxicity assay (PrestoBlue cell viability, 72 hours); type: cell-based; conditions: human, A549, MIA PaCa-2, PANC-1, one range for the lines, read-out: cytotoxicity IC50 against human lung and pancreatic carcinoma cell lines
# Description: Effect of hypoculoside on the growth of three bacterial strains Staphylococcus aureus (ATCC 25923), Pseudomonas aeruginosa (ATCC 9027) and Klebsiella aerogenes (ATCC 13048) was assessed as previously described. Cytotoxicity of hypoculoside on the A549 human lung cell line and the pancreatic carcinoma cell lines MIA PaCa-2 and PANC-1 was determined as described before. A549 and MIA PaCa-2 were seeded at 1,500 cells per well, and PANC-1 cells were seeded at 2,500 cells per well in a 384-well microplate. Cells were treated with hypoculoside at various concentrations and incubated for 72 hours at 37 °C in the presence of 5% CO2. Cytotoxic effect of hypoculoside was measured using the PrestoBlue™ cell viability reagent (Life Technologies). Following incubation of the microplates with the dye for 2 hours, the fluorescence reading (Excitation/Emission: 560 nm/590 nm) was recorded using the Tecan Infinite M1000 Pro reader.
# [4] = test system: Candida albicans strain SC5314; experiment: Broth microdilution growth inhibition of Candida albicans (CLSI guidelines, OD600 after 24 h); type: cell-based; conditions: strain SC5314, OD600 nm after 24 hours, read-out: IC50 for inhibition of growth of C. albicans cells
# Description: Figure 2 Hypoculoside has antifungal activity. (A) Workflow used in the purification and analysis of hypoculoside from Acremonium sp. F2434. (B) Structure of hypoculoside (8) and its aglycone derivative hypoculine (9). (C) Logarithmically growing Candida albicans cells were exposed to hypoculoside and amphotericin B at various concentrations in triplicates in a 96-well microplate. Growth of the cells was quantified by recording the absorbance at 600 nm after 24 hours. Growth (normalized with respect to DMSO-treated cells) is plotted against log of concentration of the compound. A picture of the microplate after 24 hours of incubation at 30 °C is shown in Supplementary Fig. S2A. (D) Effect of hypoculoside on the growth of Saccharomyces cerevisiae cells grown in YPD medium was analyzed in the similar way as for Candida albicans described above in C.
# We evaluated the potency of hypoculoside by examining its effect on the growth of Candida albicans strain (SC5314) using the Clinical and Laboratory Standards Institute (CLSI) guidelines. We used the well-known antifungal amphotericin B as a positive control. We exposed logarithmically growing Candida albicans cells to hypoculoside and amphotericin B at various concentrations and monitored the growth by recording the OD600 nm after 24 hours. […]
structure (smiles),measurement,setting,value
"CC(N)C(O)CCCCCCCCCCCCCCCCCCC(O)C(C)OC1OC(CO)C(O)C(O)C1O (centres unmarked) [hypoculoside, Hypoculoside]",concentration that inhibited the growth of wild type cells,"[1]; BY4743, YPD, 24 hours at 30 °C (Fig. 5A)",11 µM
same,IC50,"[1]; Saccharomyces cerevisiae, read-out: IC50 for growth of Saccharomyces cerevisiae cells",7.2 µM
same,inhibition at 5.5 µM,"[1]; Saccharomyces cerevisiae, 5.5 µM, YPD, 24 hours at 30 °C",10%
same,"inhibition of growth of the vps35, pep8, vps20, vps27 and vps36 mutants","[2]; 5.5 µM, YPD, 24 hours at 30 °C",completely inhibited
same,"concentration that inhibited the growth of the vps35, pep8, vps20, vps27 and vps36 mutants","[2]; YPD, 24 hours at 30 °C (Fig. 5A)",5.5 µM
same,toxicity to vesicular trafficking mutants in comparison to the wild type strain,[2]; several vesicular trafficking mutants,two-fold more toxic
same,IC50 at 72 h,[3],9 to 14 µM
same,IC50,[4],7.6 µM
